This note sets out measurements from US20190077795A1, “ARGININE […] INHIBITORS AND USES THEREOF” (Epizyme, Inc., priority 2014, published 2019).

As a reminder, the IC50 is the concentration needed to halve the response being measured.

For one assay, the target named is T1, human PRMT1 (Homo sapiens, UniProt Q99873).
T1 construct: GST-tagged PRMT1; made in house; host or cells: High Five insect cells (baculovirus, pFastBac1)
In words: PRMT1 Biochemical Assay. The settings on record: peptide substrate, 3H-SAM Flashplate assay; read-out: PRMT1 IC50. The source says:
S-adenosylmethionine (SAM), S-adenosylhomocysteine (SAH), bicine, Tween20, dimethylsulfoxide (DMSO), bovine skin gelatin (BSG), and Tris(2-carboxyethyl)phosphine hydrochloride solution (TCEP) were purchased from Sigma-Aldrich at the highest level of purity possible. ^3H-SAM was purchase from American Radiolabeled Chemicals with a specific activity of 80 Ci/mmol. 384-well streptavidin Flashplates were purchased from PerkinElmer.
Recombinant baculovirus were generated according to Bac-to-Bac kit instructions (Life Technologies). […] Infections were carried out at 27° C. for 48 hours, harvested by centrifugation, and stored at −80° C. for purification.
GST-tagged PRMT1 was eluted with 50 mM Tris, 2 mM glutathione, pH 7.8, dialysed in buffer A and concentrated to 1 mg/mL.
General Procedure for PRMT1 Enzyme Assays on Peptide Substrates.
(§1) The assays were all performed in a buffer consisting of 20 mM Bicine (pH=7.6), 1 mM TCEP, 0.005% BSG, and 0.002% Tween 20, prepared on the day of use. […] DMSO (1 ul) was added to Columns 11, 12, 23, 24, rows A-H for the maximum signal control and 1 ul of SAH, a known product and inhibitor of PRMT1, was added to columns 11, 12, 23, 24, rows I-P for the minimum signal control. A cocktail (40 ul) containing the PRMT1 enzyme was added by Multidrop Combi (Thermo-Fisher). The compounds were allowed to incubate with PRMT1 for 30 min at room temperature, then a cocktail (10 ul) containing SAM and peptide was added to initiate the reaction (final volume=51 ul). […] The assays were stopped by the addition of non-radiolabeled SAM (10 ul) to a final concentration of 300 uM, which dilutes the ^3H-SAM to a level where its incorporation into the peptide substrate is no longer detectable. 50 ul of the reaction in the 384-well polypropylene plate was then transferred to a 384-well Flashplate and the biotinylated peptides were allowed to bind to the streptavidin surface for at least 1 hour before being washed once with 0.1% Tween20 in a Biotek ELx405 plate washer. The plates were then read in a PerkinElmer TopCount plate reader to measure the quantity of ^3H-labeled peptide bound to the Flashplate surface, measured as disintegrations per minute (dpm) or alternatively, referred to as counts per minute (cpm).
(§2) Where dpm=disintegrations per minute, cmpd=signal in assay well, and min and max are the respective minimum and maximum signal controls.
(§3) Where top and bottom are the normally allowed to float, but may be fixed at 100 or 0 respectively in a 3-parameter fit. The Hill Coefficient normally allowed to float but may also be fixed at 1 in a 3-parameter fit. Y is the % inhibition and X is the compound concentration.

The next assay deals with human PRMT8 (Homo sapiens, UniProt Q9NR22). In words: PRMT8 Biochemical Assay. The note with it: PRMT8 IC50 (uM), peptide substrate, 3H-SAM Flashplate assay.
Chain of human PRMT8 (Q9NR22 whole entry): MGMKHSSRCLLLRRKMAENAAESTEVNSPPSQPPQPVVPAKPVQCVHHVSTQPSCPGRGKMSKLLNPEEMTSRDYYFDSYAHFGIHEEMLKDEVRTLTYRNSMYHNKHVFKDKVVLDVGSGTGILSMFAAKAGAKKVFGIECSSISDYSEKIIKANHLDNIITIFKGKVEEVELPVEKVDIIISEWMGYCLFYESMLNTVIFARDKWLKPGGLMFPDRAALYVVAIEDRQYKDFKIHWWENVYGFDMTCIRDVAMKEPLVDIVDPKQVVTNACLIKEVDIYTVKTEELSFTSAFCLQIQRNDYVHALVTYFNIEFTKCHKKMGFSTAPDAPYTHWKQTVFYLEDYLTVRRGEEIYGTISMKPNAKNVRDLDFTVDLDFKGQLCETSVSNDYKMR
The subject of assay [1] is mono-methyl arginine in RKO cells. In words: RKO Methylation Assay, In Cell Western (ICW). The format is cell-based. The note with it: 72 hours. The source says: RKO adherent cells were purchased from ATCC (American Type Culture Collection), Manassas, Va., USA. DMEM/Glutamax medium, penicillin-streptomycin, heat inactivated fetal bovine serum, 0.05% trypsin and D-PBS were purchased from Life Technologies, Grand Island, N.Y., USA. Odyssey blocking buffer, 800CW goat anti-rabbit IgG (H+L) antibody, and Licor Odyssey infrared scanner were purchased from Licor Biosciences, Lincoln, Nebr., USA. Mono-methyl arginine antibody was purchased from Cell Signaling Technology, Danvers, Mass., USA. Methanol was purchased from VWR, Franklin, Mass., USA. 10% Tween 20 was purchased from KPL, Inc., Gaithersburg, Md., USA. DRAQ5 was purchased from Biostatus Limited, Leicestershire, UK.
RKO adherent cells were maintained in growth medium (DMEM/Glutamax medium supplemented with 10% v/v heat inactivated fetal bovine serum and 100 units/mL penicillin-streptomycin) and cultured at 37° C. under 5% CO2.
Cell treatment, In Cell Western (ICW) for detection of mono-methyl arginine and DNA content.
Compound (100 nL) from a 96-well source plate was added directly to 384 well cell plate. Plates were incubated at 37° C., 5% CO2 for 72 hours. After three days of incubation, plates were brought to room temperature outside of the incubator for ten minutes and blotted on paper towels to remove cell media. 50 μL of ice cold 100% methanol was added directly to each well and incubated for 30 min at room temperature. After 30 min, plates were transferred to a Biotek EL406 plate washer and washed 2 times with 100 μL per well of wash buffer (1×PBS). Next 60 μL per well of Odyssey blocking buffer (Odyssey Buffer with 0.1% Tween 20 (v/v)) were added to each plate and incubated 1 hour at room temperature. Blocking buffer was removed and 20 μL per well of primary antibody was added (mono-methyl arginine diluted 1:200 in Odyssey buffer with 0.1% Tween 20 (v/v)) and plates were incubated overnight (16 hours) at 4° C. Plates were washed 5 times with 100 μL per well of wash buffer. […] The plates were washed 5 times with 100 μL per well wash buffer then 2 times with 100 μL per well of water. Plates were allowed to dry at room temperature then imaged on the Licor Odyssey machine which measures integrated intensity at 700 nm and 800 nm wavelengths. Both 700 and 800 channels were scanned.
First, the ratio for each well was determined by:
Each plate included fourteen control wells of DMSO only treatment (minimum activation) as well as fourteen control wells for maximum activation treated with 20 μM of a reference compound. The average of the ratio values for each control type was calculated and used to determine the percent activation for each test well in the plate. Reference compound was serially diluted three-fold in DMSO for a total of nine test concentrations, beginning at 20 μM. Percent activation was determined and EC30 curves were generated using triplicate wells per concentration of compound.

A further assay addresses T2, human PRMT6 (Homo sapiens, UniProt Q96LA8).
T2 construct: Flag-PRMT6-His; made in house; host or cells: HEK 293F cells (BacMam baculovirus, pFastBacMam)
Briefly: PRMT6 Biochemical Assay.
Excerpt: S-adenosylmethionine (SAM), S-adenosylhomocysteine (SAH), bicine, Tween20, dimethylsulfoxide (DMSO), bovine skin gelatin (BSG), sodium butyrate and Tris(2-carboxyethyl)phosphine hydrochloride solution (TCEP) were purchased from Sigma-Aldrich at the highest level of purity possible. ^3H-SAM was purchase from American Radiolabeled Chemicals with a specific activity of 80 Ci/mmol. 384-well streptavidin Flashplates were purchased from PerkinElmer.
Peptide representative of human histone H4 residues 36-50 was synthesized with an N-terminal linker-affinity tag motif and a C-terminal amide cap by 21st Century Biochemicals.
The amplified gene was subcloned into pFastBacMam (Viva Biotech).
Recombinant baculovirus were generated according to Bac-to-Bac kit instructions (Life Technologies). […] Infections were carried out at 37° C. for 48 hours, harvested by centrifugation, and stored at −80° C. for purification.
Column was washed with 20 mM imidazole in the same buffer and Flag-PRMT6-His was eluted with 150 mM imidazole. Pooled fractions were dialysed against buffer Ni-A and further purified by anti-flag M2 affinity chromatography. Flag-PRMT6-His was eluted with 200 ug/ml FLAG peptide in the same buffer. Pooled fractions were dialysed in 20 mM Tris, 150 mM NaCl, 10% glycerol and 5 mM β-mercaptoethanol, pH 7.8.
General Procedure for PRMT6 Enzyme Assays on Peptide Substrates.
as §1, with “PRMT6,” for “PRMT1,”, “PRMT6” for “PRMT1”, “400” for “300”
as §2, §3

[2] abbreviates: peptide substrate, 3H-SAM Flashplate assay, read-out: PRMT6 IC50.

Where two headings read alike, the source gives them in different places.

T2 sequence (Q96LA8 with tags, fused parts or gaps): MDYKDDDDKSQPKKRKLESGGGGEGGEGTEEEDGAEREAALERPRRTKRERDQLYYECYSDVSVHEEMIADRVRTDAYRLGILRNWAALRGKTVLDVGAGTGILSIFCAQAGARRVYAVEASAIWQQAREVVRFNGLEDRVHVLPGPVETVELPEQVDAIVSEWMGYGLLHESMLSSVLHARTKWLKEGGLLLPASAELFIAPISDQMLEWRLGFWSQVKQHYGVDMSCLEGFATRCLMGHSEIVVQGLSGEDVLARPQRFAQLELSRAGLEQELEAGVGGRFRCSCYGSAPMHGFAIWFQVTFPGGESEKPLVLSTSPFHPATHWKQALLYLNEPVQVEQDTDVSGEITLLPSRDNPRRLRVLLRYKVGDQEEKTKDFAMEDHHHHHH
T1 sequence (Q99873 with tags, fused parts or gaps): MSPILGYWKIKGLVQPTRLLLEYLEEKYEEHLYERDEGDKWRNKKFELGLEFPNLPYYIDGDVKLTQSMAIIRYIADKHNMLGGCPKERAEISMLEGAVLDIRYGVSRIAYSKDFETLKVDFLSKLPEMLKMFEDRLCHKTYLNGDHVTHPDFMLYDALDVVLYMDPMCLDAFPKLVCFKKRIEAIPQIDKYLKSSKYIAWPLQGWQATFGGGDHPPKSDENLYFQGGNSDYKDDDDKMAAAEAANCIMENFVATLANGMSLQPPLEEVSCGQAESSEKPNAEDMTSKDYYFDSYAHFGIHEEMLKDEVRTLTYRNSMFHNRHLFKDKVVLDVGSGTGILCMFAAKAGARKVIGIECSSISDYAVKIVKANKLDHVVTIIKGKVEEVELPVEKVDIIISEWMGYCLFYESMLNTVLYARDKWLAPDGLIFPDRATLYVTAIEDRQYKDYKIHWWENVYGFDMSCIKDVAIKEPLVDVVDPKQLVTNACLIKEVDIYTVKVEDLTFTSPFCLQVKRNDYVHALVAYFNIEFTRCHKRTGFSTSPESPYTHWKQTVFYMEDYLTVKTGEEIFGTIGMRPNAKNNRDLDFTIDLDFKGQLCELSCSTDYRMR

Turning to `CNCCN(C)Cc1c[nH]nc1-c1ccc(OCCOc2ccc(C(O)CO)cc2)cc1` (stereo not shown) [Compound 21], the IC50 stood at 6.23 nM at human PRMT1, 0.026 µM at human PRMT8 and 0.00616 µM on human PRMT6 (setting [2]). The “ICW EC30” value in assay [1] is 3184 nM.

`CNCCN(C)Cc1c[nH]nc1-c1cc(F)c(OC2COC2)c(C(F)(F)F)c1` [Compound 23]: the results for the IC50 on human PRMT1, at human PRMT8 and at human PRMT6 (setting [2]) were 6.47 nM, 0.0608 µM and 0.0169 µM, respectively. Moreover, the “ICW EC30” value in assay [1] worked out at 1296 nM.

`CNCCN(C)Cc1c[nH]nc1-c1cc(OCCOC)cc(C(F)F)c1` [Compound 24]: the IC50 at human PRMT1 worked out at 6.5 nM; against human PRMT8, 0.132 µM; at human PRMT6 (setting [2]) it was 0.212 µM. Moreover, the “ICW EC30” value in assay [1] is 1251 nM.

Regarding `CNCCN(C)Cc1c[nH]nc1-c1ccc(OCCc2ccccc2)cc1` [Compound 25], the half-maximal inhibitory concentration (IC50) came to 6.68 nM at human PRMT1, 0.0173 µM against human PRMT8 and 0.011 µM at human PRMT6 (setting [2]). In addition, the “ICW EC30” value in assay [1] came out at 97 nM.

For `CNCCN(C)Cc1c[nH]nc1-c1cc(F)c(Cl)c(C(F)(F)F)c1` [Compound 27], the figures for the IC50 on human PRMT1, on human PRMT8 and on human PRMT6 (setting [2]) were 6.75 nM, 0.037 µM and 0.0214 µM, respectively. Besides, the “ICW EC30” value in assay [1] was determined as 377 nM.

For the compound `COCCOc1cc(-c2n[nH]cc2CN(C)CCN)cc(C(F)F)c1` [Compound 29], the values for the IC50 on human PRMT1, on human PRMT8 and at human PRMT6 (setting [2]) were 6.94 nM, 0.112 µM and 0.276 µM, respectively. For the same compound, the “ICW EC30” value in assay [1] amounted to 5437 nM.

Turning to `CN(CCN)Cc1c[nH]nc1-c1cc(F)c(Cl)c(C(F)(F)F)c1` [Compound 30], the IC50 stood at 7.05 nM on human PRMT1, 0.0608 µM at human PRMT8 and 0.0135 µM on human PRMT6 (setting [2]). For the same compound, the “ICW EC30” value in assay [1] turned out to be 648 nM.

`CNCCN(C)Cc1c[nH]nc1-c1ccc(OCCOc2cccc(OCCC(O)CO)c2)cc1` (stereo not shown) [Compound 31]: the IC50 worked out at 7.08 nM at human PRMT1, 0.02 µM against human PRMT8 and 0.00432 µM at human PRMT6 (setting [2]). Further, in assay [1], the “ICW EC30” value was determined as 2325.4 nM.

For `CNCCN(C)Cc1c[nH]nc1-c1ccc(OCCOc2ccc(OC(C)C)cc2)cc1` [Compound 33], the figures for the IC50 at human PRMT1, at human PRMT8 and at human PRMT6 (setting [2]) were 7.37 nM, 0.0233 µM and 0.00562 µM, respectively. Moreover, the “ICW EC30” value in assay [1] is 232 nM.

With `CNCCN(C)Cc1c[nH]nc1[C@H]1CC[C@@H](OCCOc2ccc(OCCOC)cc2)CC1` [Compound 34], the IC50 is 7.37 nM at human PRMT1, 0.0135 µM on human PRMT8 and 0.0267 µM on human PRMT6 (setting [2]). The “ICW EC30” value in assay [1] was determined as 80.13 nM.

For `CNCCN(C)Cc1c[nH]nc1-c1ccc(OCCOc2ccc(OCCC(O)CO)cc2)cc1` (stereo not shown) [Compound 35], the IC50 is 7.59 nM at human PRMT1, 0.0219 µM against human PRMT8 and 0.005 µM on human PRMT6 (setting [2]). Besides, the “ICW EC30” value in assay [1] worked out at 422.7 nM.

Consider `CNCCN(C)Cc1c[nH]nc1-c1ccc(OCCOc2ccc(N3CCOCC3)cc2)cc1` [Compound 36], for which the IC50 is 7.64 nM on human PRMT1, 0.0244 µM at human PRMT8 and 0.00635 µM on human PRMT6 (setting [2]). The “ICW EC30” value in assay [1] was found to be 127.1 nM.

`CNCCN(C)Cc1c[nH]nc1-c1ccc(CC(C)C)cc1` [Compound 37]: the IC50 was found to be 8.04 nM on human PRMT1, 0.0136 µM against human PRMT8 and 0.0169 µM on human PRMT6 (PRMT6 IC50 (uM)). In addition, the “ICW EC30” value in assay [1] was 82 nM.

Regarding `C=C(C)COc1c(Cl)cc(-c2n[nH]cc2CN(C)CCNC)cc1C(F)(F)F` [Compound 39], the results for the IC50 on human PRMT1, against human PRMT8 and on human PRMT6 (setting [2]) were 8.31 nM, 0.0122 µM and 0.0295 µM, respectively. The “ICW EC30” value in assay [1] worked out at 439 nM.

For `CNCCN(C)Cc1c[nH]nc1-c1ccc(OCCOc2ccc(OCC(C)C)cc2)cc1` [Compound 40], the IC50 on human PRMT1 was found to be 8.34 nM; against human PRMT8 it was 0.0247 µM; at human PRMT6 (setting [2]), 0.00739 µM. Moreover, the “ICW EC30” value in assay [1] worked out at 505.1 nM.

In the case of `CNCCN(C)Cc1c[nH]nc1-c1ccc(N(C)CCOc2ccc(OC)cc2)cc1` [Compound 41], the concentration for half-maximal inhibition (IC50) was determined as 8.8 nM on human PRMT1, 0.0334 µM at human PRMT8 and 0.00896 µM at human PRMT6 (setting [2]). Further, the “ICW EC30” value in assay [1] amounted to 351.4 nM.
